Assay results reported in PMC9330922, “Genomewide Analysis and Biological Characterization of Cathelicidins with Potent Antimicrobial Activity and Low Cytotoxicity from Three Bat Species” (Antibiotics, 2022).

Tested on: Mucor hiemalis KCTC 26779
Assay: microbe, parasite or virus in culture
Type: cell-based
Conditions: KCTC26779, concentration not given, peptides tested at 20, 40, and 80 µg/mL, fluvastatin sodium 70 µM, read-out: rate of metabolic inhibition
Method: To evaluate the antifungal activity of peptides against M. hiemalis, the metabolic activity of hyphae was measured using the same colorimetric assay as described above, with slight modifications to a previous study. Briefly, M. hiemalis was streaked onto malt extract broth (BD Biosciences) agar in a Petri dish and cultured at 25 °C for seven days. Then, conidia were collected from the dish by adding phosphate buffered saline (PBS) containing 0.05% Tween-80 (Sigma Aldrich) and filtered through sterilized 40 um cell strainer (SPL Life Science, Pocheon, Korea) to remove hyphae. After washing twice with PBS and centrifugation, 5 × 10^4 conidia were counted using a hemocytometer, suspended in 50 µL of RPMI 1640 as described above, and seeded in wells of a 96-well plate. After 16 h of incubation at 25 °C for hyphae formation, the plate was centrifuged at 3000× g and the media were changed. The peptides were then added at final concentrations of 20, 40, and 80 µg/mL. Fluvastatin sodium (70 µM; Sigma-Aldrich) was used as a reference for antifungal activity. […] The absorbance at 450 nm (for the treated group and control) and 650 nm (for the background) was measured for each well using a microplate reader (xMarkTM spectrophotometer; Bio-Rad). The metabolic activity of the fungal cells was calculated using the following equation. […]

## CC(C)n1c(/C=C/C(O)CC(O)CC(=O)O)c(-c2ccc(F)cc2)c2ccccc21 (stereo not shown) [fluvastatin sodium, Fluvastatin sodium]
  inhibition at 70 µM: ~80%
